Tested on: 843782-103-R-J1-PDC complex spheroid viability
Assay: Anticancer human tumor 843782-103-R-J1-PDC patient-derived lung adenocarcinoma cell line growth inhibition [RAS]
Details: for IC50: curve of first compound; for viability, T/C: stronger effect = lower value; active means viability on the fitted dose curve at most 10% of control; inactive means the rest
Summary of the method: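 Agents were tested in combination matrices in half-log decrements from a top concentration at or near clinical Cmax (10 microM if undetermined). Targets were multi-cell spheroids of tumour lines plus HUVEC and MSC stromal cells.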

[1] = second compound 0.000949 µM, first compound 0.0316 µM
[2] = second compound 0.000949 µM, first compound 0.1 µM
[3] = second compound 0.000949 µM, first compound 0.316 µM
[4] = second compound 0.000949 µM, first compound 1 µM
[5] = second compound 0.003 µM, first compound 0.0316 µM
[6] = second compound 0.003 µM, first compound 0.1 µM
[7] = second compound 0.003 µM, first compound 0.316 µM
[8] = second compound 0.003 µM, first compound 1 µM
[9] = second compound 0.00949 µM, first compound 0.0316 µM
[10] = second compound 0.00949 µM, first compound 0.1 µM
[11] = second compound 0.00949 µM, first compound 0.316 µM
[12] = second compound 0.00949 µM, first compound 1 µM
[13] = second compound 0.03 µM, first compound 0.0316 µM
[14] = second compound 0.03 µM, first compound 0.1 µM
[15] = second compound 0.03 µM, first compound 0.316 µM
[16] = second compound 0.03 µM, first compound 1 µM
[17] = second compound 0.0949 µM, first compound 0.0316 µM
[18] = second compound 0.0949 µM, first compound 0.1 µM
[19] = second compound 0.0949 µM, first compound 0.316 µM
[20] = second compound 0.0949 µM, first compound 1 µM
[21] = second compound 0.3 µM, first compound 0.0316 µM
[22] = second compound 0.3 µM, first compound 0.1 µM
[23] = second compound 0.3 µM, first compound 0.316 µM
[24] = second compound 0.3 µM, first compound 1 µM
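Further: viability read after seven days of compound exposure.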

CC(=O)OC12COC1CC(O)C1(C)C(=O)C(O)C3=C(C)C(OC(=O)C(O)C(NC(=O)OC(C)(C)C)c4ccccc4)CC(O)(C(OC(=O)c4ccccc4)C21)C3(C)C (stereo unspecified) + CCn1c(-c2cc(N3CCN(C)CC3)cnc2C(C)OC)c2c3cc(ccc31)-c1csc(n1)CC(NC(=O)C1CC1C)C(=O)N1CCCC(N1)C(=O)OCC(C)(C)C2
active: viability, T/C [1] 4.09% | viability, T/C [2] 3.3% | viability, T/C [3] 4.43% | viability, T/C [4] 4.14% | viability, T/C (second compound 0.000949 µM, first compound 3.16 µM) 4.74% | viability, T/C (second compound 0.000949 µM, first compound 10 µM) 5.86% | viability, T/C [5] 3.09% | viability, T/C [6] 3.12% | viability, T/C [7] 3.99% | viability, T/C [8] 3.29% | viability, T/C (second compound 0.003 µM, first compound 3.16 µM) 6.91% | viability, T/C (second compound 0.003 µM, first compound 10 µM) 8.55% | viability, T/C [9] 4.74% | viability, T/C [10] 4.97% | viability, T/C [11] 5.9% | viability, T/C [12] 4.93% | viability, T/C (second compound 0.00949 µM, first compound 3.16 µM) 5.8% | viability, T/C (second compound 0.00949 µM, first compound 10 µM) 8.1% | viability, T/C [13] 5.08% | viability, T/C [14] 4.74% | viability, T/C [15] 7.03% | viability, T/C [16] 5.84% | viability, T/C (second compound 0.03 µM, first compound 3.16 µM) 6.77% | viability, T/C (second compound 0.03 µM, first compound 10 µM) 7.36% | viability, T/C [17] 6.75% | viability, T/C [18] 7.55% | viability, T/C [19] 6% | viability, T/C [20] 8.09% | viability, T/C (second compound 0.0949 µM, first compound 3.16 µM) 7.2% | viability, T/C (second compound 0.0949 µM, first compound 10 µM) 7.32% | viability, T/C [21] 6.51% | viability, T/C [22] 6.53% | viability, T/C [23] 8.66% | viability, T/C [24] 8.26% | viability, T/C (second compound 0.3 µM, first compound 3.16 µM) 9.04% | viability, T/C (second compound 0.3 µM, first compound 10 µM) 7.8%
< 31.6 nM: IC50 (second compound 0.000949 µM) | IC50 (second compound 0.003 µM) | IC50 (second compound 0.00949 µM) | IC50 (second compound 0.03 µM) | IC50 (second compound 0.0949 µM) | IC50 (second compound 0.3 µM)

CCc1c2c(nc3ccc(O)cc13)-c1cc3c(c(=O)n1C2)COC(=O)[C@]3(O)CC + CCn1c(-c2cc(N3CCN(C)CC3)cnc2C(C)OC)c2c3cc(ccc31)-c1csc(n1)CC(NC(=O)C1CC1C)C(=O)N1CCCC(N1)C(=O)OCC(C)(C)C2
active: viability, T/C (second compound 0.000949 µM, first compound 0.00949 µM) 4.84% | viability, T/C (second compound 0.000949 µM, first compound 0.03 µM) 2.16% | viability, T/C (second compound 0.000949 µM, first compound 0.0949 µM) 1.13% | viability, T/C (second compound 0.000949 µM, first compound 0.3 µM) 0.96% | viability, T/C (second compound 0.003 µM, first compound 0.00949 µM) 5.17% | viability, T/C (second compound 0.003 µM, first compound 0.03 µM) 1.82% | viability, T/C (second compound 0.003 µM, first compound 0.0949 µM) 1.45% | viability, T/C (second compound 0.003 µM, first compound 0.3 µM) 1.05% | viability, T/C (second compound 0.00949 µM, first compound 0.00949 µM) 5.27% | viability, T/C (second compound 0.00949 µM, first compound 0.03 µM) 2.03% | viability, T/C (second compound 0.00949 µM, first compound 0.0949 µM) 2.15% | viability, T/C (second compound 0.00949 µM, first compound 0.3 µM) 0.92% | viability, T/C (second compound 0.03 µM, first compound 0.00949 µM) 5.86% | viability, T/C (second compound 0.03 µM, first compound 0.03 µM) 2.53% | viability, T/C (second compound 0.03 µM, first compound 0.0949 µM) 1.38% | viability, T/C (second compound 0.03 µM, first compound 0.3 µM) 0.97% | viability, T/C (second compound 0.0949 µM, first compound 0.00949 µM) 5.71% | viability, T/C (second compound 0.0949 µM, first compound 0.03 µM) 2.6% | viability, T/C (second compound 0.0949 µM, first compound 0.0949 µM) 1.4% | viability, T/C (second compound 0.0949 µM, first compound 0.3 µM) 1.46% | viability, T/C (second compound 0.3 µM, first compound 0.003 µM) 11.7% | viability, T/C (second compound 0.3 µM, first compound 0.00949 µM) 5.29% | viability, T/C (second compound 0.3 µM, first compound 0.03 µM) 2.41% | viability, T/C (second compound 0.3 µM, first compound 0.0949 µM) 1.96% | viability, T/C (second compound 0.3 µM, first compound 0.3 µM) 0.79%
1.49 nM: IC50 (second compound 0.000949 µM)
0.963 nM: IC50 (second compound 0.003 µM)
< 0.949 nM: IC50 (second compound 0.00949 µM) | IC50 (second compound 0.03 µM) | IC50 (second compound 0.0949 µM) | IC50 (second compound 0.3 µM)
inactive: viability, T/C (second compound 0.000949 µM, first compound 0.000949 µM) 68.4% | viability, T/C (second compound 0.000949 µM, first compound 0.003 µM) 21.8% | viability, T/C (second compound 0.003 µM, first compound 0.000949 µM) 50.8% | viability, T/C (second compound 0.003 µM, first compound 0.003 µM) 20.9% | viability, T/C (second compound 0.00949 µM, first compound 0.000949 µM) 38% | viability, T/C (second compound 0.00949 µM, first compound 0.003 µM) 17.9% | viability, T/C (second compound 0.03 µM, first compound 0.000949 µM) 18.9% | viability, T/C (second compound 0.03 µM, first compound 0.003 µM) 15.3% | viability, T/C (second compound 0.0949 µM, first compound 0.000949 µM) 14.2% | viability, T/C (second compound 0.0949 µM, first compound 0.003 µM) 13.4% | viability, T/C (second compound 0.3 µM, first compound 0.000949 µM) 13.5%

Nc1ccn(C2OC(CO)C(O)C2(F)F)c(=O)n1 (stereo unspecified) + CCn1c(-c2cc(N3CCN(C)CC3)cnc2C(C)OC)c2c3cc(ccc31)-c1csc(n1)CC(NC(=O)C1CC1C)C(=O)N1CCCC(N1)C(=O)OCC(C)(C)C2
17.9 nM: IC50 (second compound 0.000949 µM)
active: viability, T/C [2] 3.62% | viability, T/C [3] 1.6% | viability, T/C [4] 2.63% | viability, T/C [6] 3.76% | viability, T/C [7] 1.56% | viability, T/C [8] 1.61% | viability, T/C [10] 5.56% | viability, T/C [11] 2.02% | viability, T/C [12] 1.82% | viability, T/C [14] 7.32% | viability, T/C [15] 2.39% | viability, T/C [16] 1.81% | viability, T/C [18] 11.8% | viability, T/C [19] 4.42% | viability, T/C [20] 2.61% | viability, T/C [23] 7.82% | viability, T/C [24] 3.72%
11.5 nM: IC50 (second compound 0.003 µM)
inactive: viability, T/C (second compound 0.000949 µM, first compound 0.00316 µM) 83.4% | viability, T/C (second compound 0.000949 µM, first compound 0.01 µM) 73.4% | viability, T/C [1] 27.1% | viability, T/C (second compound 0.003 µM, first compound 0.00316 µM) 64.4% | viability, T/C (second compound 0.003 µM, first compound 0.01 µM) 54% | viability, T/C [5] 20.3% | viability, T/C (second compound 0.00949 µM, first compound 0.00316 µM) 37.1% | viability, T/C (second compound 0.00949 µM, first compound 0.01 µM) 36.2% | viability, T/C [9] 16.3% | viability, T/C (second compound 0.03 µM, first compound 0.00316 µM) 19% | viability, T/C (second compound 0.03 µM, first compound 0.01 µM) 22.7% | viability, T/C [13] 15.8% | viability, T/C (second compound 0.0949 µM, first compound 0.00316 µM) 15.9% | viability, T/C (second compound 0.0949 µM, first compound 0.01 µM) 18.9% | viability, T/C [17] 13.9% | viability, T/C (second compound 0.3 µM, first compound 0.00316 µM) 14.3% | viability, T/C (second compound 0.3 µM, first compound 0.01 µM) 16.6% | viability, T/C [21] 16.6% | viability, T/C [22] 12.6%
< 3.16 nM: IC50 (second compound 0.00949 µM) | IC50 (second compound 0.03 µM) | IC50 (second compound 0.0949 µM) | IC50 (second compound 0.3 µM)
